Assays:
PC-3 tumor-bearing mice [1] = experiment: Ex vivo biodistribution of 177Lu-labeled ligands in PC-3 tumor-bearing mice; conditions: 1 h pi, 100 µg [D-Phe6,Leu-NHEt13,des-Met14]Bombesin(6-14)
Protocol: SPECT/CT imaging was conducted using an MI Labs (Houten, The Netherlands) U-SPECT-II/CT scanner with a custom-made ultra-high sensitivity big mouse collimator (2 mm pinhole size) following published procedure. The experiments were obtained in accordance with the same protocol established in the PET/CT imaging and ex vivo biodistributions section. The mice were used for SPECT/CT imaging and ex vivo biodistributions studies once the tumors reached a diameter of 5–8 mm. PC-3 tumor-bearing mice were sedated (2.5% isoflurane in O2) and injected with 31.4–36.9 MBq of the ^177Lu-labeled ligand through a lateral caudal tail vein. The mouse was imaged at 1, 4, 24, 72, and 120 h pi. At each time point, a 5 min CT scan was performed with 615 μA and 60 kV parameters for localization and attenuation, followed by two 30 min static SPECT scans in list mode with an energy window centered around 208 keV. The U-SPECT II software was used to reconstruct data, and the images were decay corrected to the time of injection with PMOD v 3.402 (PMOD Technologies GmbH, Fallanden, Switzerland).
For ex vivo biodistribution studies, the mice were injected with ~3–5 MBq of the ^177Lu-labeled ligand (n = 5). At 1, 4, 24, 72, and 120 h post-injection, the mice were anesthetized with 2% isoflurane, euthanized by CO2 inhalation, and the tissues/organs of interest were […] for radioactivity counting. The blocking study was performed at 1 h pi via co-injection of the ^177Lu-labeled ligand with 100 μg of [D-Phe^6,Leu-NHEt^13,des-Met^14]Bombesin(6–14).

PC-3 tumor-bearing mice [2] = experiment: Ex vivo biodistribution of 68Ga-labeled tracers in PC-3 tumor-bearing mice; conditions: 1 h pi; for reduction of average tumor uptake by co-injection of blocking agent: 100 µg blocking agent
Protocol: PET/CT imaging and biodistribution studies were conducted using male NOD.Cg-Rag1^tm1Mom Il2rg^tm1Wjl/SzJ (NRG) mice following previously published procedures. The studies were carried out in compliance with the guidelines established by the Canadian Council on Animal Care and approved by Animal Ethics Committee of the University of British Columbia (protocol number A20-0113, approved on 30 September 2022). The mice were anaesthetized and subcutaneously implanted with 5 × 10^6 PC-3 cells (100 µL; 1:1 PBS/Matrigel) behind the left shoulder. PET/CT imaging and biodistribution studies were performed once the tumors reached a diameter of 5–8 mm, typically after approximately 4 weeks of growth.
For ex vivo biodistribution studies, the mice were injected with the ^68Ga-labeled tracer (2–4 MBq) via a lateral caudal tail vein. For blocking [^68Ga]Ga-LW02060, the mice were co-injected with 100 μg of [D-Phe^6,Leu-NHEt^13,des-Met^14]Bombesin(6–14). For blocking [^68Ga]Ga-LW02080, the mice were co-injected with 100 μg of its nonradioactive standard Ga-LW02080. At 1 h pi, the mice were euthanized by CO2 inhalation. Blood and organs/tissues of interest were collected, weighed, and counted using a gamma counter.

[3] = In vivo stability study (radio-HPLC of plasma and urine); conditions: NRG mice, 15 min pi; for remaining intact in plasma: n = 3
Protocol: For in vivo stability studies, [^68Ga]Ga-LW02060 or [^68Ga]Ga -LW02080 (5.23–12.9 MBq) was injected into healthy male NRG mice (n = 3) tough a lateral caudal tail vein. At 15 min pi, mice were anaesthetized and euthanized, followed by collection of the urine and blood samples. The plasma was extracted from whole blood by adding an equal volume of CH3CN, followed by vortexing, centrifugation, and collection of the supernatant. The plasma and urine samples were analyzed via radio-HPLC.

GRPR = target: T1, GRPR (Homo sapiens, UniProt P30550); experiment: Fluorometric intracellular calcium release assay using PC-3 cells; format: cell-based; conditions: for intracellular calcium release: 50 nM ligand, n = 4
T1 construct: host or cells: PC-3 cells
T1 sequence (P30550 whole entry): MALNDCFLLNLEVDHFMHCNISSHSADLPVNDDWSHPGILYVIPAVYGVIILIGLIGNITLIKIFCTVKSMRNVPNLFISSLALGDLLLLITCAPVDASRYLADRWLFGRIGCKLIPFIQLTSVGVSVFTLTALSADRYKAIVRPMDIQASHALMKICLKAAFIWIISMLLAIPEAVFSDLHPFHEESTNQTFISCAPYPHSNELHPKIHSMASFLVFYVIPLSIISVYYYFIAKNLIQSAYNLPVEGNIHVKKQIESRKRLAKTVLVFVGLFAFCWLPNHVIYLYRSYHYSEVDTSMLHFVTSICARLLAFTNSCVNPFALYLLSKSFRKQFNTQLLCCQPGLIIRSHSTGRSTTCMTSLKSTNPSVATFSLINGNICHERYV
Protocol: The agonist/antagonist characteristics of LW02060, Ga-LW02060, Lu-LW02060, LW02080, Ga-LW02080, and Lu-LW02080 were determined following published procedures. The PC-3 cells were obtained from ATCC (via Cedarlane, Burlington, ON, Canada). A 96-well clear bottom black plate was seeded with 5 × 10^4 PC-3 cells in 100 μL growth media per well 24 h before the assay. The loading buffer (100 μL/well) containing a calcium-sensitive dye (FLIPR Calcium 6 assay kit from Molecular Devices, San Jose, CA, USA) was added into the 96-well plate, followed by 1 h incubation at 37 °C. The plate was then transferred into a FlexStation 3 microplate reader (Molecular Devices, San Jose, CA, USA). LW02060 (50 nM), Ga-LW02060 (50 nM), Lu-LW02060 (50 nM), LW02080 (50 nM), Ga-LW02080 (50 nM), Lu-LW02080 (50 nM), [D-Phe^6,Leu-NHEt^13,des-Met^14]Bombesin(6–14) (50 nM, antagonist control), bombesin (50 nM, agonist control), adenosine triphosphate (ATP, 50 nM, positive control), or DPBS (blank control) was added, and the fluorescent signals were measured for 2 min (λEx = 485 nm; λEm = 525 nm; n = 4). The relative fluorescent units (RFU = max − min) were calculated to determine the agonistic/antagonistic characteristics of LW02060, Ga-LW02060, Lu-LW02060, LW02080, Ga-LW02080, and Lu-LW02080, respectively.

| Compound | reduction of tumor uptake by co-injection of blocking agent (PC-3 tumor-bearing mice [1]) | uptake in all other collected organs/tissues (except tumor xenografts and kidneys) (PC-3 tumor-bearing mice [2]) | reduction of average tumor uptake by co-injection of blocking agent (PC-3 tumor-bearing mice [2]) | intact tracer in urine [3] | remaining intact in plasma [3] | intracellular calcium release (GRPR) | also measured |
| --- | --- | --- | --- | --- | --- | --- | --- |
| CC(C)C[C@H](NC(=O)[C@H](Cc1cnc[nH]1)N(C)C(=O)CNC(=O)[C@@H](NC(=O)[C@H](C)NC(=O)[C@H](Cc1c[nH]c2ccccc12)NC(=O)[C@H](CCC(N)=O)NC(=O)[C@@H](Cc1ccccc1)NC(=O)CN1CCC(NC(=O)CN2CCN(CC(=O)O)CCN(CC(=O)O)CCN(CC(=O)O)CC2)CC1)C(C)(C)C)C(=O)N1CC(F)(F)C[C@H]1C(N)=O [[^177Lu]Lu-LW02060] [metal not drawn] | 66% | – | – | – | – | – | reduction of pancreas uptake by co-injection of blocking agent (PC-3 tumor-bearing mice [1]): 81%; reduction of small intestine uptake by co-injection of blocking agent (PC-3 tumor-bearing mice [1]): 66%; reduction of stomach uptake by co-injection of blocking agent (PC-3 tumor-bearing mice [1]): 72% |
| CC(C)C[C@@H](CN1CC(F)(F)C[C@H]1C(N)=O)NC(=O)[C@H](Cc1c[nH]cn1)NC(=O)CN(C)C(=O)[C@@H](NC(=O)[C@H](C)NC(=O)[C@H](Cc1c[nH]c2ccccc12)NC(=O)[C@H](CCC(N)=O)NC(=O)[C@@H](Cc1ccccc1)NC(=O)CN1CCC(NC(=O)CN2CCN(CC(=O)O)CCN(CC(=O)O)CCN(CC(=O)O)CC2)CC1)C(C)C [[^68Ga]Ga-LW02080] [metal not drawn] | – | lower than 1 %ID/g | 77% | No intact tracer was detected | 87.4 ± 5.34% | – | – |
| CC(C)C[C@@H](CN1CC(F)(F)C[C@H]1C(N)=O)NC(=O)[C@H](Cc1c[nH]cn1)NC(=O)CN(C)C(=O)[C@@H](NC(=O)[C@H](C)NC(=O)[C@H](Cc1c[nH]c2ccccc12)NC(=O)[C@H](CCC(N)=O)NC(=O)[C@@H](Cc1ccccc1)NC(=O)CN1CCC(NC(=O)CN2CCN(CC(=O)O)CCN(CC(=O)O)CCN(CC(=O)O)CC2)CC1)C(C)C [[^177Lu]Lu-LW02080] [metal not drawn] | 64% | – | – | – | – | – | – |
| DOTA-Pip-[D-Phe^6,Tle^10,NMe-His^12,diF-Pro^14]Bombesin(6–14) [LW02060] | – | – | – | – | – | 377 ± 41.9 RFU | agonist/antagonist characteristics (GRPR): GRPR agonists |
| CC(C)C[C@H](NC(=O)[C@H](Cc1cnc[nH]1)N(C)C(=O)CNC(=O)[C@@H](NC(=O)[C@H](C)NC(=O)[C@H](Cc1c[nH]c2ccccc12)NC(=O)[C@H](CCC(N)=O)NC(=O)[C@@H](Cc1ccccc1)NC(=O)CN1CCC(NC(=O)CN2CCN(CC(=O)O)CCN(CC(=O)O)CCN(CC(=O)O)CC2)CC1)C(C)(C)C)C(=O)N1CC(F)(F)C[C@H]1C(N)=O [[^68Ga]Ga-LW02060] [metal not drawn] | – | lower than 1 %ID/g | 64% | No intact tracer was detected | > 99% | – | tumor uptake relative to [68Ga]Ga-LW02080 (PC-3 tumor-bearing mice [2]): 2.3 fold; tumor uptake relative to previously reported [68Ga]Ga-LW02056 (PC-3 tumor-bearing mice [2]): 1.9 fold |
| [D-Phe^6,Leu-NHEt^13,des-Met^14]Bombesin(6–14) [reference compound] | – | – | – | – | – | 16.6 ± 3.84 RFU | – |
